From patent US20100075960A1 (priority 2006, published 2010) come the findings set out here.

pIC50: −log10 of the molar value.

Holding throughout (format): cell-based
Assay [1] has as its system H1299. Nature of the assay: Inhibition of cell proliferation, H1299. The settings on record: Homo sapiens, NCI-H1299; Lung; 72 h; methylene blue or CellTiter-Glo. The method, then: (§1) II. Inhibition of Cell Proliferation by PLK1 Inhibitors.
(§2) Exponentially growing cell lines of different tumor origins, cultured in appropriate media containing 10% fetal bovine serum at 37° C. in a 5% CO2 incubator were plated in 96 or 384-well plates. Twenty four hours post-plating, cells were treated with different concentrations of test compounds ranging from 20 μM to 0.04 nM. Several wells were left untreated as a control. Seventy two hours post-treatment, cell numbers were determined using different techniques; 100 μl per well of methylene blue (Sigma M9140) (0.5% in 50:50 Ethanol:water), or 10-100 μl per well of CellTiter-Glo (Promega #G7573), depending on well size. For methylene blue staining, stain was incubated at room temperature for 30 minutes before plates were rinsed and dye solubilized in 1% N-lauroyl sarcosine, sodium salt, (Sigma L5125, in PBS). Plates were read on a microplate reader, measuring the OD at 620 nm. For CellTiter-Glo, plates were incubated at room temperature for 15 minutes and the chemiluminescent signal was read on the Victor V or Envison 2100 reader.
(§3) Percent inhibition of cell growth was expressed as percent proliferation relative to 100% proliferation (control). […]
For orientation: ATP-based viability assays read luminescence as a measure of living cells.

Assay [2] concerns HT29. Nature of the assay: Inhibition of cell proliferation, HT29. The settings on record: Homo sapiens, HT-29; Colon; 72 h; methylene blue or CellTiter-Glo. The method, then:
as §1, §2
(§4) Percent inhibition of cell growth was expressed as percent proliferation relative to 100% proliferation (control). Concentration of test compound that inhibited 50% of cell growth (IC50) was determined by 4 parameter fit of data using XLfit, (value of no cell control was substracted from all samples for background). The data are shown in Table 1 and Table 2 below and represent a compilation of several different experiments each performed using the general parameters outlined above, although minor variations may have been employed in some instances, in Table 1 and Table 2, +=IC50>1 μM; ++=IC50 0.5-1 μM: +++=IC50<0.5 μM.

Assay [3] deals with HCT116. Nature of the assay: Inhibition of cell proliferation, HCT116. The settings on record: Homo sapiens, HCT-116; 72 h treatment; methylene blue or CellTiter-Glo.
Assay [4] concerns COLO205. Nature of the assay: Inhibition of cell proliferation, COLO205. The settings on record: Homo sapiens, COLO 205; Colon; 72 h; methylene blue or CellTiter-Glo. The method, then: as §1, §2, §4
The test system of assay [5] is MX-1. Nature of the assay: Inhibition of cell proliferation, MX-1. The settings on record: Homo sapiens, MX1; Breast; 72 h; methylene blue or CellTiter-Glo. The method, then:
as §1, §2, §4

Assay [6] deals with MCF7. Nature of the assay: Inhibition of cell proliferation, MCF7. The settings on record: Homo sapiens, Breast, 72 h, methylene blue or CellTiter-Glo. The method, then:
as §1, §2, §3

The subject of assay [7] is MDA-MB-468. Put plainly: Inhibition of cell proliferation, MDA-MB-468. The settings on record: Homo sapiens, Breast, 72 h, methylene blue or CellTiter-Glo. The method, then: as §1, §2, §3
Assay [8] concerns RPMI 8226. Put plainly: Inhibition of cell proliferation, RPMI 8226. The settings on record: Homo sapiens, leukemia, 72 h, methylene blue or CellTiter-Glo. The method, then: as §1, §2, §3
Assay [9] concerns SKOV-3. Put plainly: Inhibition of cell proliferation, SKOV-3. The settings on record: Homo sapiens, SK-OV-3; Ovarian; 72 h; methylene blue or CellTiter-Glo. The method, then:
as §1, §2, §4

Assay [10] relates to LNCaP. Put plainly: Inhibition of cell proliferation, LNCaP. The settings on record: Homo sapiens, Prostate, 72 h, methylene blue or CellTiter-Glo. The method, then:
as §1, §2, §3

Assay [11] relates to HN5. Put plainly: Inhibition of cell proliferation, HN5. The settings on record: Homo sapiens; Head and neck; Table 2 first HN5 line; 72 h. The method, then: as §1, §2, §4
Assay [12] relates to Hela. Nature of the assay: Inhibition of cell proliferation, Hela. The settings on record: Homo sapiens, Cervical, 72 h, methylene blue or CellTiter-Glo. The method, then: as §1, §2, §3

Turning to `C[C@@H](Oc1cc(-n2cnc3cc(-c4cnn(C)c4)ccc32)sc1C(N)=O)c1cccc(OC2CCN(CCS(C)(=O)=O)CC2)c1Cl` [Example 31, 3-({(1R)-1-[2-Chloro-3-({1-[2-(methylsulfonyl)ethyl]-4-piperidinyl}oxy)phenyl]ethyl}oxy)-5-[5-(1-methyl-1H-pyrazol-4-yl)-1H-benzimidazol-1-yl]-2-thiophenecarboxamide], the pIC50 in assay [1], in [2], in assay [3], in [4], in assay [5] and in [6] was over 6.30 each time. For the same compound, the pIC50 was over 6.30 in [7]; over 6.30 in assay [8]; over 6.30 in assay [9]; 6.00 to 6.30 in [10]; over 6.30 in assay [11]; over 6.30 in [12].

By pIC50 is commonly meant −log10 of the IC50, conventionally taken in molar units.
